# According to patent US20180043011A1, “PI3-Kinase Inhibition and LAG-3 Checkpoint blockade as a Combination Therapy for Cancer” (Wisconsin Alumni Research Foundation, priority 2016, published 2018):
# Experiments:
# [1] = system: activated (CD137+) CD8+ T cells; experiment: In vitro stimulation of splenocytes, surface expression of LAG-3 and PD1 by flow cytometry; assay type: cell-based, mouse; details: 200nM BEZ235; WT (CD3/28 beads) or OT1 (SIINFEKL peptide) splenocytes; 24 h
# Method: FIG. 1A depicts WT (top) and OT1 (bottom) splenocytes stimulated with either CD3/28 beads or SIINFEKL peptide respectively, with/without PI3K inhibition and assayed for surface expression of LAG-3 (left graphs) or PD1 (right graphs) on activated (CD137+) CD8+ T cells at 24 h. FIG. 1B depicts a representative OT1 sample showing levels of LAG-3 and PD1 on CD8+ T cells upon in vitro SIINFEKL stimulation in the presence of a PI3K inhibitor. (* denotes a p-value <0.05, two way Mann-Whitney test) FIG. 1C depicts WT splenocytes stimulated with CD3/28 beads with/without PI3K inhibition and assayed for intracellular expression of cytokines in CD8+ T cells.
# Splenocytes from either OT-1 or wild type (WT) C57BL/6J mice were cultured in RPMI-1640, 10% FCS, 200U/mL Pen/Strep, 1% NaPyr, 1% HEPES, 50 μM β-MeOH and 2 μg/mL SIINFEKL peptide (OT1 cells) or CD3 and CD28 antibody coated latex beads (WT cells) with or without 200nM BEZ235 PI3-Kinase inhibitor (Selleckchem, Catalog No. S1009).
# (* denotes a p-value <0.05, two way Mann-Whitney test).
# [2] = system: SSX2 mouse sarcoma cell line; experiment: Cancer cell growth in vitro (images after three days); assay type: cell-based; details: 200 nM BEZ235; three days after plating; 100,000 cells per flask
# Method: An SSX2 mouse sarcoma cell line (described in Rekoske et al., Cancer Immunol Res August 2015 3; 946) was split and 100,000 cells plated into each of two […] flasks. Cells were grown in RPMI-1640, 5% FCS, 200 U/mL Pen/Strep, 50 μM β-MeOH with or without 200 nM BEZ235 PI3-Kinase inhibitor. FIG. 2 left, mouse sarcoma cell line grown in normal media three days after plating; shown at […] and 10× and right, sarcoma cells from the same split plated with the same number of cells/cm^2 and grown in media containing the pan-PI3K inhibitor BEZ235.
structure (smiles),measurement,setting,value
Cn1c(=O)n(-c2ccc(C(C)(C)C#N)cc2)c2c3cc(-c4cnc5ccccc5c4)ccc3ncc21 [BEZ235],surface expression of LAG-3 on CD8+ T cells,[1],increased expression of LAG-3
same,surface expression of PD-1 on CD8+ T cells,[1],reduced expression of PD-1
same,cell growth,[2],inhibited cell growth
